Results: ChEMBL document CHEMBL1134689, “Novel C-terminus modifications of the Dmt-Tic motif: a new class of dipeptide analogues showing altered pharmacological profiles toward the opioid receptors” (J Med Chem, 2001)
Calls of active or inactive are those of the source. The rule behind the calls is not given here.

Tests used:
[1] = target: T1, Kappa-type opioid receptor (Homo sapiens, UniProt P41145); test: Binding affinity at cloned human opioid receptor kappa 1
Mu-type opioid receptor [2] = target: T2, Mu-type opioid receptor (Homo sapiens, UniProt P35372); test: Binding affinity at cloned human mu-opioid receptor
T2 sequence (P35372 whole entry): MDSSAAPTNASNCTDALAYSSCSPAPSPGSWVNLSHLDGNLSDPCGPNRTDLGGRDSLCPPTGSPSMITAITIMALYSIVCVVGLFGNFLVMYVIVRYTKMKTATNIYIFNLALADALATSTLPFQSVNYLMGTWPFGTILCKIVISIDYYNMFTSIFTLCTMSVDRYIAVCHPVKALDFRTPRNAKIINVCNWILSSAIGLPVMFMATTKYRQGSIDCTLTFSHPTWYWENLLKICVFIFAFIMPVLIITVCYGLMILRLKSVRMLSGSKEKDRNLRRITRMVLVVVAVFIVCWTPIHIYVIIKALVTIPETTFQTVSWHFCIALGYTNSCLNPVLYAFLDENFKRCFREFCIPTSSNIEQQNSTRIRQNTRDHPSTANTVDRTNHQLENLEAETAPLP

[3] = target: T3, Delta-type opioid receptor (Homo sapiens, UniProt P41143); test: Binding affinity at cloned human delta-opioid receptor
T3 sequence (P41143 whole entry): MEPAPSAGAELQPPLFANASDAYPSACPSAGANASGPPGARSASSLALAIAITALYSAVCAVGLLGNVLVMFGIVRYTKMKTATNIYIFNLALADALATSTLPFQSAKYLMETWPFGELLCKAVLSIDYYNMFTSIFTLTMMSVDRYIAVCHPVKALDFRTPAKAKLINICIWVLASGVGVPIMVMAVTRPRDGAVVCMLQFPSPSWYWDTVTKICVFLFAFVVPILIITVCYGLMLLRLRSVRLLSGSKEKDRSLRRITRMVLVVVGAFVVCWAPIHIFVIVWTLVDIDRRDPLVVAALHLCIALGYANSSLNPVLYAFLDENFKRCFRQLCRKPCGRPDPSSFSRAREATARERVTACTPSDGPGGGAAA

Mu-type opioid receptor [4] = target: T2, Mu-type opioid receptor; test: Agonist potency using GTP-gamma [35S]- binding assay for mu-opioid receptor; Inactive
[5] = target: T3, Delta-type opioid receptor; test: Agonist potency using GTP-gamma [35S]- binding assay for delta-opioid receptor; Inactive
[6] = target: T3, Delta-type opioid receptor; test: Agonist potency using GTP-gamma [35S]- binding assay for delta-opioid receptor
[7] = target: T1, Kappa-type opioid receptor; test: Agonist potency using GTP-gamma [35S]- binding assay for opioid receptor kappa 1
[8] = target: T1, Kappa-type opioid receptor; test: Compound was tested for maximum stimulation of opioid receptor kappa 1 by GTP-gamma [35S]- binding assay
Mu-type opioid receptor [9] = target: T2, Mu-type opioid receptor; test: Agonist potency using GTP-gamma [35S]- binding assay for mu-opioid receptor
[10] = target: T1, Kappa-type opioid receptor

T1 sequence (P41145 whole entry): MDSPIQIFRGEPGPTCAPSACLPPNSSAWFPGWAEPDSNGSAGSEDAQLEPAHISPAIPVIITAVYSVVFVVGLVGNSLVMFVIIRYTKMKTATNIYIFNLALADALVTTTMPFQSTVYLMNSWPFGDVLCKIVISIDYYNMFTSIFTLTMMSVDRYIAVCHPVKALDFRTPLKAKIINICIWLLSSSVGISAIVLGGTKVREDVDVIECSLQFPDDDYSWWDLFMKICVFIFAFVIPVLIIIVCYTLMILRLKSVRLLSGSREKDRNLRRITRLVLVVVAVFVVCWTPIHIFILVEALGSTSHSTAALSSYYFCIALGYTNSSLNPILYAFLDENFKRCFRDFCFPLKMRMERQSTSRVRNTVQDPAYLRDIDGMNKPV

Row | Structure (SMILES) | IC50 [1] | IC50 (Mu-type opioid receptor [2]) | IC50 [3] | NA (Mu-type opioid receptor [4]) | NA [5] | EC50 [6] | EC50 [7] | Emax [8] | EC50 (Mu-type opioid receptor [9]) | NA [10]
1 | CC(=O)OC[C@@H]1Cc2ccccc2CN1C(=O)[C@@H](N)Cc1c(C)cc(O)cc1C | 3100 nM | 4.7 nM | 1.1 nM | inactive | inactive | – | – | – | – | –
2 | Cc1cc(O)cc(C)c1C[C@H](N)C(=O)N1Cc2ccccc2C[C@H]1CN(C)C | 793 nM | 83.2 nM | 0.97 nM | – | inactive | – | – | – | – | –
3 | Cc1cc(O)cc(C)c1C[C@H](N)C(=O)N1Cc2ccccc2C[C@H]1CNC(=O)NC(C)(C)C | 1.3 nM | 61.8 nM | 0.17 nM | inactive | – | 0.65 nM | 6.9 nM | 96.9% | – | –
4 | Cc1cc(O)cc(C)c1C[C@H](N)C(=O)N1Cc2ccccc2C[C@H]1CN=C(N)N | 345 nM | 12.8 nM | 3.2 nM | – | – | – | – | – | – | –
5 | Cc1cc(O)cc(C)c1C[C@H](N)C(=O)N1Cc2ccccc2C[C@H]1CN | 521 nM | 113 nM | 4.9 nM | – | inactive | – | – | – | – | –
6 | CC(=O)NC[C@@H]1Cc2ccccc2CN1C(=O)[C@@H](N)Cc1c(C)cc(O)cc1C | 9380 nM | 16.1 nM | 0.79 nM | – | – | 1.5 nM | – | – | – | –
7 | Cc1cc(O)cc(C)c1C[C@H](N)C(=O)N1Cc2ccccc2C[C@H]1CNC(=O)C(C)(C)C | 394 nM | 25.3 nM | 0.79 nM | – | inactive | – | – | – | – | –
8 | COC[C@@H]1Cc2ccccc2CN1C(=O)[C@@H](N)Cc1c(C)cc(O)cc1C | 2510 nM | 458 nM | 1.3 nM | – | inactive | – | – | – | – | –
9 | Cc1cc(O)cc(C)c1C[C@H](N)C(=O)N1Cc2ccccc2C[C@H]1CO | > 10000 nM | 421 nM | 2 nM | inactive | inactive | – | – | – | – | –
10 | Cc1cc(O)cc(C)c1C[C@H](N)C(=O)N1Cc2ccccc2C[C@H]1CNC(=O)NC12CC3CC(CC(C3)C1)C2 | 4.1 nM | 1.1 nM | 0.29 nM | inactive | inactive | – | 11.5 nM | 81.7% | – | –
11 | CCNC(=O)NC[C@@H]1Cc2ccccc2CN1C(=O)[C@@H](N)Cc1c(C)cc(O)cc1C | 321 nM | 169 nM | 0.99 nM | – | – | 5.7 nM | – | – | – | –
12 | Cc1cc(O)cc(C)c1C[C@H](N)C(=O)N1Cc2ccccc2C[C@H]1CNC(=S)Nc1ccccc1 | 51.4 nM | 5.4 nM | 0.27 nM | – | – | 1.7 nM | – | – | – | –
13 | Cc1cc(O)cc(C)c1C[C@H](N)C(=O)N1Cc2ccccc2C[C@H]1CN=[N+]=[N-] | 1070 nM | 94.6 nM | 1.1 nM | – | – | 49.4 nM | – | – | – | –
14 | Cc1cc(O)cc(C)c1C[C@H](N)C(=O)N1Cc2ccccc2C[C@H]1CNC(=O)Nc1ccccc1 | 4.8 nM | 1 nM | 0.13 nM | – | – | 0.75 nM | 161 nM | 81.7% | 18.8 nM | –
15 | Cc1cc(O)cc(C)c1C[C@H](N)C(=O)N1Cc2ccccc2C[C@H]1C | 764 nM | 3 nM | 1.7 nM | – | inactive | – | – | – | – | –
16 | Cc1cc(O)cc(C)c1C[C@H](N)C(=O)N1Cc2ccccc2C[C@H]1CNC(=O)c1ccccc1 | 307 nM | 0.98 nM | 0.24 nM | – | inactive | – | – | – | 109 nM | –
17 | Cc1cc(O)cc(C)c1C[C@H](N)C(=O)N1Cc2ccccc2C[C@H]1CNC(=S)NC(C)(C)C | 2.8 nM | 36 nM | 0.22 nM | – | – | 0.32 nM | 24.3 nM | – | – | –
18 | Cc1cc(O)cc(C)c1C[C@H](N)C(=O)N1Cc2ccccc2C[C@H]1CNCC(C)(C)C | 1.5 nM | 1.3 nM | 0.99 nM | inactive | – | 2.8 nM | 1.4 nM | 102% | – | –
19 | CC(C)[C@H](NC(=O)[C@H](CC(=O)O)NC(=O)[C@H](Cc1ccccc1)NC(=O)[C@@H](C)NC(=O)[C@@H](N)Cc1ccc(O)cc1)C(=O)N[C@H](C(=O)NCC(N)=O)C(C)C | – | – | – | – | – | – | – | – | – | inactive
20 | Cc1cc(O)cc(C)c1C[C@H](N)C(=O)N1Cc2ccccc2C[C@H]1CNCc1ccccc1 | 1.5 nM | 0.65 nM | 0.41 nM | – | – | 0.92 nM | 6.8 nM | 100% | 37.1 nM | –
21 | C=CCOC[C@@H]1Cc2ccccc2CN1C(=O)[C@@H](N)Cc1c(C)cc(O)cc1C | 1450 nM | 108 nM | 0.98 nM | – | inactive | – | – | – | – | –
22 | Cc1cc(O)cc(C)c1C[C@H](N)C(=O)N1Cc2ccccc2C[C@H]1C/N=C(/S)NC(C)(C)C | – | – | – | – | – | – | – | 99.6% | – | –
23 | CC(=N)NC[C@@H]1Cc2ccccc2CN1C(=O)[C@@H](N)Cc1c(C)cc(O)cc1C | 996 nM | 33.2 nM | 9.9 nM | – | – | – | – | – | – | –
24 | Cc1cc(O)cc(C)c1C[C@H](N)C(=O)N1Cc2ccccc2C[C@H]1COCc1ccccc1 | 64.6 nM | 12.5 nM | 0.33 nM | inactive | – | 0.97 nM | – | – | – | –
